Test results as given in patent US4820834A, “Benzodiazepine analogs” (priority 1987, dated 1989).
pIC50: −log10 of the molar value. Read-outs that look alike come from different tables or passages of the source.

How the values were obtained:
CCK receptor (pancreas) = biological target: T1, CCK receptor (pancreas) (Rattus norvegicus, UniProt P30551); assay: CCK Receptor Binding (Pancreas): inhibition of ^125 I-CCK-33 binding; design: species or system Male Sprague-Dawley rats
T1 construct: The whole pancreas was dissected free of fat tissue and was homogenized; from tissue; host or cells: rat pancreas membranes (Sprague-Dawley)
T1 sequence (P30551 1-444): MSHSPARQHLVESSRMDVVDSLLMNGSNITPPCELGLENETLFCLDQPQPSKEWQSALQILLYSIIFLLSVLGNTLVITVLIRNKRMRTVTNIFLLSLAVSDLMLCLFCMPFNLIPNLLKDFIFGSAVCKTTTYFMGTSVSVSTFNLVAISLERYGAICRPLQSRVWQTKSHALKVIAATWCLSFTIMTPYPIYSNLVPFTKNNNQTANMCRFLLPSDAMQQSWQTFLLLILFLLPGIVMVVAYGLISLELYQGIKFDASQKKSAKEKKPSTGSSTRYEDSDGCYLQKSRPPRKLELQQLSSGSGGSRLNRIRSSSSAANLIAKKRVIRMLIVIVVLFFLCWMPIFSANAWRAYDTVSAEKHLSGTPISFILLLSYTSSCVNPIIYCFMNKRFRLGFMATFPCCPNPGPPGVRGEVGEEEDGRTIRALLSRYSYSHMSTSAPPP
Summary of the method: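 Bound ^125I-CCK-33 was counted in pellets after a 30 min, 37° C incubation followed by centrifugation. Membranes came from male Sprague-Dawley rat pancreas, assayed in Tris HCl pH 7.7 containing DTT, bacitracin, PMSF and o-phenanthroline. For Scatchard analysis, tracer was diluted with rising unlabelled CCK-33.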

[1] = biological target: T2, Gastrin receptor (gastric glands) (Cavia porcellus, UniProt H0VZC5); assay: Gastrin Receptor Binding in Guinea Pig Gastric Glands; design: species or system guinea pig (male Hartley); conditions: 25° C., 30 minutes
T2 construct: The washed guinea pig gastric glands prepared as above were resuspended; from tissue; host or cells: guinea pig gastric mucosal glands (male Hartley)
T2 sequence (H0VZC5 1-426): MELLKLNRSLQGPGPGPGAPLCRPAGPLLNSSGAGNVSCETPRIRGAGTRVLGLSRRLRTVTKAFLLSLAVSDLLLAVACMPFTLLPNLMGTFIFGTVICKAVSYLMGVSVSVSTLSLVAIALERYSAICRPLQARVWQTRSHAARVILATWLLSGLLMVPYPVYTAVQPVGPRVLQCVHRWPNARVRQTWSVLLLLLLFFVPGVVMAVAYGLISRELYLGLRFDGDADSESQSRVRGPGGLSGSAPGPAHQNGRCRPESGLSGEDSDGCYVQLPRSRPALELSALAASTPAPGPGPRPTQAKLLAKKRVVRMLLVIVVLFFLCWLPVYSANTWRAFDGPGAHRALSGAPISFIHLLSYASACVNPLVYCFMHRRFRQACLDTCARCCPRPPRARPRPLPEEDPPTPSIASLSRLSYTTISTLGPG

[2] = biological target: T3, CCK receptor (brain, cerebral cortex) (Cavia porcellus, UniProt H0VZC5); assay: biochemical; format: binding, Male Hartley guinea pigs
T3 construct: Cerebral cortex was dissected and used as a receptor source; from tissue; host or cells: guinea pig cerebral cortex membranes (male Hartley)
T3 sequence (H0VZC5 1-426): T2 sequence (H0VZC5 1-426)
Summary of the method: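 Binding of [radiolabeled] CCK-33 measured by gamma counting of centrifuged pellets after 2 h at 25°C. Membranes came from guinea pig brain cortex, suspended in 10 mM HEPES, 5 mM MgCl2, 1 mM EGTA, 0.25 mg/ml bacitracin, 0.4% BSA.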

[3] = IC50 ^125 I-CCK Pancreas, rat pancreas membranes, ^125 I-CCK-33, 37° C., 30 minutes
[4] = ^125 I-gastrin, read-out: IC50 ^125 I-Gastrin Gastric Glands
[5] = guinea pig cerebral cortex, ^125 I-CCK-33, 25° C., 2 hours; read-out: IC50 ^125 I-CCK Brain
[6] = rat pancreas membranes, ^125 I-CCK-33, 37° C., 30 minutes; read-out: IC50 ^125 I-CCK Pancreas
[7] = IC50 ^125 I-CCK Brain, guinea pig cerebral cortex, ^125 I-CCK-33, 25° C., 2 hours
[8] = IC50 ^125 I-Gastrin Gastric Glands

O=C(CN1C(=O)C(NC(=O)OCc2ccccc2)N=C(c2ccccc2)c2ccccc21)NCc1ccccc1 (stereo not drawn) [Example 212, (2,3-Dihydro-2-oxo-1-(2-oxo-2-((phenylmethyl)amino)ethyl)-5-phenyl-1H-1,4-benzodiazepin-3-yl)-carbamic acid phenylmethyl ester]
pIC50 (CCK receptor (pancreas); [3]): 5.72 | pIC50 [1, 4]: 6.22 | pIC50 [2, 5]: 6.40

Cc1ccc2c(c1)N(C)C(=O)C(NC(=O)c1cc3ccccc3[nH]1)N=C2c1ccccc1 (stereo not drawn) [Example 294, 3-N-(2,3-Dihydro-1,8-dimethyl-2-oxo-5-phenyl-1H-1,4-benzodiazepin-3-yl)-1H-indole-2-carboxamide]
pIC50 (CCK receptor (pancreas); [3]): 10.00 | pIC50 [1, 4]: 7.40 | pIC50 [2, 5]: 7.42

CN1C(=O)C(C(O)c2cccs2)N=C(c2ccccc2)c2ccccc21 (racemic) [Example 52, 1,3-Dihydro-3(RS)-[1-hydroxy-1-(2-thienyl)]methyl-1-methyl-5-phenyl-2H-1,4-benzodiazepin-2-one]
pIC50 (CCK receptor (pancreas); [3]): < 4.00 | pIC50 [1, 4]: 4.59 | pIC50 [2, 5]: 4.48

CN1C(=O)[C@H](NC(=O)c2ccc(C(F)(F)F)cc2)N=C(c2ccccc2)c2ccccc21 [Example 207, (R)-N-(2,3-Dihydro-1-methyl-2-oxo-5-phenyl-1H-1,4-benzodiazepin-3-yl)-4-(trifluoromethyl)-benzamide]
pIC50 (CCK receptor (pancreas); [6]): 3.94 | pIC50 [1, 4]: 5.38 | pIC50 [2, 7]: 5.48

CSC1=N[C@@H](Cc2c[nH]c3ccccc23)C(=O)N(C)c2ccccc21 [Example 8, 1,3-Dihydro-3(S)-(3'-indolyl)methyl-1-methyl-5-methylthio-2H-1,4-benzodiazepin-2-one]
pIC50 (CCK receptor (pancreas); [6]): 4.00 | pIC50 [1, 4]: 3.64 | pIC50 [2, 5]: 4.00

O=C(O)CN1C(=O)C(NC(=O)Nc2ccc(Cl)cc2)N=C(c2ccccc2)c2ccccc21 (stereo not drawn) [Example 202, 3-((((4-Chlorophenyl)amino)carbonyl)amino)-2,3-dihydro-2-oxo-5-phenyl-1H-1,4-benzodiazepine-1-acetic acid]
pIC50 (CCK receptor (pancreas); [6]): 7.25 | pIC50 [1, 4]: 6.92 | pIC50 [2, 5]: 7.14

CN1C(=O)[C@@H](NC(=O)c2ccc(Br)cc2)N=C(c2ccccc2F)c2ccccc21 [Example 156, 3(S)-(+)-3-(4-Bromobenzoylamino)-1,3-dihydro-5-(2-fluorophenyl)-1-methyl-2H-1,4-benzodiazepin-2-one]
pIC50 (CCK receptor (pancreas); [3]): 8.46 | pIC50 [1, 4]: 6.17 | pIC50 [2, 7]: 5.40

CN1C(=O)[C@@H](N)N=C(c2ccccc2)c2ccccc21 [Example 85a, 3(S)-(-)-3-Amino-1,3-dihydro-1-methyl-5-phenyl-2H-1,4-benzodiazepin-2-one]
pIC50 (CCK receptor (pancreas); [6]): 4.00 | pIC50 [1, 8]: < 4.00 | pIC50 [2, 7]: < 4.00

N#Cc1ccc(C(=O)NC2N=C(c3ccccc3)c3ccccc3NC2=O)cc1 (racemic) [Example 149, 3-(RS)-(4'-Cyanobenzoylamino)1,3-dihydro-5-phenyl-2H-1,4-benzodiazepin-2-one]
pIC50 (CCK receptor (pancreas); [3]): 6.14 | pIC50 [1, 8]: 4.66 | pIC50 [2, 7]: < 4.00

CN1C(=O)[C@@H](NC(=O)C2CCCCC2)N=C(c2ccccc2)c2ccccc21 [Example 191, (S)-N-(2,3-Dihydro-1-methyl-2-oxo-5-phenyl-1H-1,4-benzodiazepin-3-yl)-cyclohexanecarboxamide]
pIC50 (CCK receptor (pancreas); [6]): 6.10 | pIC50 [1, 4]: < 4.00 | pIC50 [2, 5]: < 4.00

O=CNc1ccccc1C(=O)CC1N=C(c2ccccc2F)c2ccccc2NC1=O (stereo not drawn) [Example 104, 1,3-Dihydro-5-(2-fluorophenyl)-3-(2-formylaminobenzoylmethyl)-2H-1,4-benzodiazepin-2-one]
pIC50 (CCK receptor (pancreas); [3]): 6.52 | pIC50 [1, 4]: < 4.00 | pIC50 [2, 5]: < 4.00

CCN(CC)C(=O)CN1C(=O)C(NC(=O)OCc2ccccc2)N=C(c2ccccc2)c2ccccc21 (stereo not drawn) [Example 222]
pIC50 (CCK receptor (pancreas); [3]): 5.66 | pIC50 [1, 4]: 6.64 | pIC50 [2, 5]: 6.82

O=C(OC1N=C(c2ccccc2F)c2ccccc2NC1=O)c1ccc(Cl)cc1 (racemic) [Example 179, 1,3-Dihydro-5-(2-fluorophenyl)-3(RS)-(4-chlorobenzoyl)oxy-2H-1,4-benzodiazepin-2-one]
pIC50 (CCK receptor (pancreas); [3]): 5.36 | pIC50 [1, 8]: 4.74 | pIC50 [2, 7]: 5.44

CN1C(=O)C(NC(=O)Nc2ccc(F)cc2)N=C(c2ccccc2)c2ccccc21 (stereo not drawn) [Example 259, N-(2,3-Dihydro-1-methyl-2-oxo-5-phenyl-1H-1,4-benzodiazepin-3-yl)-N'-(4-fluorophenyl)-urea]
pIC50 (CCK receptor (pancreas); [6]): 7.34 | pIC50 [1, 4]: 7.85 | pIC50 [2, 5]: 7.18

O=C(NC1N=C(c2ccccc2F)c2ccccc2NC1=S)c1cc2ccccc2[nH]1 (racemic) [Example 181, 1,3-Dihydro-5-(2-fluorophenyl)-3-(RS)-(2-indole) carbonylamino-2H-1,4-benzodiazepin-2-thione]
pIC50 (CCK receptor (pancreas); [3]): 8.70 | pIC50 [1, 8]: 5.36 | pIC50 [2, 7]: 5.03

O=C(OC1N=C(c2ccccc2F)c2ccccc2N(C(=O)c2ccc(Cl)cc2)C1=O)c1ccc(Cl)cc1 (racemic) [Example 178, 1-(4-Chlorophenyl)carbonyl-1,3-dihydro-5-(2-fluorophenyl)-3(RS)-(4-chlorophenyl)carbonyloxy-2H-1,4-benzodiazepin-2-one]
pIC50 (CCK receptor (pancreas); [3]): 5.31 | pIC50 [1, 4]: < 4.00 | pIC50 [2, 5]: < 4.00

O=C1Nc2ccccc2C(c2ccccc2F)=N[C@@H]1CC1CNc2ccccc21 (stereo partly drawn) [Example 10]
pIC50 (CCK receptor (pancreas); read-out: IC50 ^125 I-CCK Pancreas; rat pancreas membranes, ^125 I-CCK-33, 37° C., 30 minutes): 4.78 | pIC50 [1, 4]: 4.33 | pIC50 ([2]; read-out: IC50 ^125 I-CCK Brain; guinea pig cerebral cortex, ^125 I-CCK-33, 25° C., 2 hours): < 4.00

CN1C(=O)[C@@H](NC(=O)c2ccccc2I)N=C(c2ccccc2F)c2ccccc21 [Example 170, 3(S)-(-)-1,3-Dihydro-5-(2-fluorophenyl)-3-(2-iodobenzoylamino)-1-methyl-2H-1,4-benzodiazepin-2-one]
pIC50 (CCK receptor (pancreas); [6]): 6.10 | pIC50 [1, 4]: 4.96 | pIC50 [2, 7]: 4.35

CN1C(=O)C(NC(=O)NCc2ccccc2)N=C(c2ccccc2)c2ccccc21 (stereo not drawn) [Example 251, N-(2,3-Dihydro-1-methyl-2-oxo-5-phenyl-1H-1,4-benzodiazepin-3-yl)-N'-phenylmethylurea]
pIC50 (CCK receptor (pancreas); [6]): 6.31 | pIC50 [1, 4]: 6.38 | pIC50 [2, 5]: 6.07
